Laboratory results reported in patent publication US10000521B2 (priority 2013, dated 2018).

Legend:
HCV replicon = test: IC50 assay with HCV luciferase replicon cell-line; type: cell-based; conditions: Hepatitis C virus, Huh-7; Huh7 cell line containing HCV replicon with luciferase reporter, 48 h
Text: Plating Cells: The cells used in these assays were a liver-derived Huh7 cell line containing an HCV replicon bearing a luciferase reporter gene. The Huh7 cell-line can be obtained from various sources including the Japanese Collection of Research Bioresources (JCRB), Osaka, Japan. The Huh7 cell line containing an HCV replicon bearing a luciferase reporter gene can be prepared essentially as described by Vrolijk J M, et al. (J Virol Methods. (2003) 110(2):201-9). Cells were passaged when they reached about 70% confluency.
These 0.5 mM dilutions were then used to further serially dilute the compounds in DMEM+2% FBS+0.5% DMSO to keep the concentration of DMSO in each condition identical.
The Glo Lysis Buffer and the Bright Glow reagent was allowed to warm to room temperature for about 30 min in the dark. […] The media was removed from cells, and the cells were gently washed with about 100 μL of phosphate buffered saline (PBS). […] It should be noted that luciferin has a half-life of approximately 30 min at room temperature after it is added to the plate. […] The data was saved and used to calculate the percent inhibition of luciferase activity at each drug concentration. […] Curve equation: (m1−m2)/(1+(x/m3)^m4); m1=100; m2=0.01; m3=0.01; m4=0.01; the equation is: […]

Huh7 cells = test: TC50 MTS cell viability assay with Huh7 cells (48 h); type: cell-based; conditions: Homo sapiens, Huh-7
Text: Plating Cells: Huh7 cells (a hepatocellular carcinoma cell-line; these cells can be obtained from the Japanese Collection of Research Bioresources (JCRB), Osaka, Japan) were used to determine the TC50 for representative compounds of the present invention. Briefly, Huh7 cells were passaged when they reached about 70% confluency. The cells were counted using a hemocytometer following dilution of the cells to about 0.5×10^5 cells per mL in DMEM with 10% fetal bovine serum (FBS). The cells were plated in a clear 96-well plate (about 5,000 cells in 100 μL per well). The cells were allowed to attach for about 24 hours at 37° C.
Treating of the cells: The DMEM media without phenol red containing 2% FBS was pre-warmed to 37° C. […] Following dilution, the final DMSO concentration was about 0.5% (v/v). […] The plates were then returned to the incubator and incubated with the cells for 48 h at 37° C.
(§1) The 96-well plate with cells incubated with test compound was removed from the 37° C. incubator. The appropriate amounts of the MTS and PMS reagents were removed from the kit and mixed well. The reagents were maintained in the dark due to their light sensitivity. […] The solutions were mixed completely in the wells prior to each reading.

[1] = Stability test at different pH conditions (HPLC); type: physicochemical
Protocol: HPLC analysis: 100 μl of the incubated solution was loaded onto a Vydac C18 analytical column 4.6/250, and the mobile phase run at 1 mL/min water with the following procedures: a. Inject 100 μl the incubated solution; b. Water for 5 minutes at 1 ml/min; c. 0-100% acetonitrile over 30 minutes; d. Back to 100% water.
Analysis: Standard HPLC analysis software was used to quantitate the area under each peak. Degradation peaks were quantitated as a percentage of the peak of the same amount of control sample (no heat treatment).

Huh7 = test: TC50 assay in different human cell lines (96 h), Huh7; type: cell-based; conditions: Huh-7, about 96 h, MTS assay
Protocol: as §1
(§2) Plating Cells: Huh7, HEPG2, HEK293, MCF-7, or BxPC3 cells (which can be obtained from American Type Culture Collection, ATCC) were passaged when they were about 70% confluent. […] The cells following passaging were allowed to attach for about 24 hours at 37° C.
(§3) The plates were then returned to the incubator, and cells incubated for about 96 h at 37° C.
(§4) MTS Assay: Assay was carried out as described above.

HEPG2 = test: TC50 assay in different human cell lines (96 h), HEPG2; type: cell-based; conditions: about 96 h, MTS assay
Protocol: as §1, §2, §3, §4

[2] = TC50 assay in different human cell lines (96 h), HEK293; type: cell-based; conditions: HEK293 cells, about 96 h, MTS assay
Protocol: as §1, §2, §3, §4

MCF-7 = test: TC50 assay in different human cell lines (96 h), MCF-7; type: cell-based; conditions: MCF7, about 96 h, MTS assay
Protocol: as §1, §2, §3, §4

BxPC3 = test: TC50 assay in different human cell lines (96 h), BxPC3; type: cell-based; conditions: BXPC-3, about 96 h, MTS assay
Protocol: as §1, §2, §3, §4

PK9 cells [3] = test: TC50 assay with inhibition of ENT1, PK9 cells; type: cell-based; conditions: Homo sapiens, PK9, 48 h, PK9 cells (48 h)
Protocol: Plating Cells: Huh7 cells or PK9 cells were seeded in 96-well plates at a density of 5,000 cells/well or 2,500 cells/well, respectively, and the plates were incubated at 37° C. for 24 h to allow for cell attachment.
Treatment with equilibrative nucleoside transporter 1 (ENT1) Inhibitor: The media was then removed from the plates and replaced with media containing 2% FBS, 0.5% DMSO, and either 10 μM dipyramidole or 10 μM S-(4-nitrobenzyl)-6-thioinosine (NBTI).
Treating with Control & Compound 1: After incubation with the ENT1 inhibitor, the cells were treated with each compound at final concentrations ranging from 500 μM to 0 μM in triplicate in media containing 2% FBS, 0.5% DMSO, and either 10 μM dipyridamole or 10 μM NBTI.

PK9 cells [4] = test: TC50 assay, effect of deficient deoxycytidine kinase activity, PK9 cells; type: cell-based; conditions: Homo sapiens, 48 h, read-out: TC50 (μM), 48 h treatment
Protocol: (§5) Plating Cells: PK9 or RPK9 cells were seeded in 96-well plates at a density of 2,500 cells/well or 2,500 cells/well, respectively, and the plates were incubated at 37° C. for 24 h to allow for cell attachment.
(§6) Treating with Control & Compound 1: The cells were treated with each compound at final concentrations ranging from 500 μM to 0 μM in triplicate in media containing 2% FBS and 0.5% DMSO.
(§7) The RPK9 cells are described in Saiki, T., et al. (2012) Biochim. Biophys. Res. Commun. 421, 98-104).

RPK9 cells = test: cells; conditions: Homo sapiens, 48 h, read-out: TC50 (μM), 48 h treatment
Protocol: as §5, §6, §7

[5] = In vivo pharmacokinetic assessment (LC-MS/MS, plasma and liver); conditions: mice, oral, plasma and liver samples
Protocol: All pharmacokinetic studies were performed with CD-1 ICR mice (female, 4-6 week old; 20-30 gram body weight), and three mice were used at each dose level and at each time point for each compound tested. […] Tetrahydrouridine (THU) was immediately added to plasma samples at a final concentration of 25 μg/mL to prevent deamination of dFdC after collection, and the samples were subsequently flash-frozen and stored at −80° C. until analysis. Approximately 200-300 mg of each mouse liver was dissected and homogenized in 150 μL of phosphate buffered saline (PBS) containing 25 μg/mL THU, resulting in 2 mg liver/μL saline homogenate. These liver homogenates were also flash-frozen and stored at −80° C. until analysis. Equivalent amounts of blood plasma and liver tissue were also collected from untreated mice and used to prepare calibration standards and quality controls. An LC-MS/MS assay was utilized to simultaneously quantify the concentrations of compound 1, dFdC and dFdU in each of the plasma and liver samples.

O=C(Nc1ccn(C2O[C@H](CO)[C@@H](O)C2(F)F)c(=O)n1)c1cc2c(cc1[N+](=O)[O-])OCO2 (stereo in doubt) [Compound 9]
IC50 (HCV replicon): 0.047 ± 0.004 µM
CC50 (Huh7 cells): > 500 µM

O=C(Nc1ccn(C2O[C@H](CO)[C@@H](O)C2(F)F)c(=O)n1)c1ccc2c(c1)OCCO2 (stereo partly drawn) [Compound 2, N-(1-((4R,5R)-3,3-difluoro-4-hydroxy-5-(hydroxymethyl)tetrahydrofuran-2-yl)-2-oxo-1,2-dihydropyrimidin-4-yl)-2,3-dihydrobenzo[b][1,4]dioxine-6-carboxamide]
IC50 (HCV replicon): 0.127 ± 0.009 µM
CC50 (Huh7 cells): 855 ± 166 µM
Compound remaining (%) ([1]; Pretreatment): 100%
Compound remaining (%) ([1]; pH 1, 40° C., 4 h): 71%
Compound remaining (%) ([1]; pH 2, 40° C., 4 h): 100%
Compound remaining (%) ([1]; pH 4, 40° C., 4 h): 100%
Compound remaining (%) ([1]; pH 6, 40° C., 4 h): 100%
Compound remaining (%) ([1]; pH 8, 40° C., 4 h): 100%
CC50 (Huh7): 3.34 µM
CC50 (HEPG2): 1.13 µM
CC50 at 96 h [2]: 5.61 µM
CC50 (MCF-7): 1.44 µM
CC50 (BxPC3): 1.15 µM

O=C(Nc1ccn([C@@H]2O[C@H](CO)C(O)C2(F)F)c(=O)n1)c1ccc2c(c1)OCCCO2 (some centres unmarked) [Compound 3]
IC50 (HCV replicon): 0.092 ± 0.008 µM
CC50 (Huh7 cells): 881 ± 287 µM

CC1(C)Cc2ccc(C(=O)Nc3ccn([C@@H]4O[C@H](CO)C(O)C4(F)F)c(=O)n3)cc2O1 (some centres unmarked) [Compound 4]
IC50 (HCV replicon): 0.177 ± 0.045 µM
CC50 (Huh7 cells): 1160 ± 204 µM

O=C(Nc1ccn([C@@H]2O[C@H](CO)C(O)C2(F)F)c(=O)n1)c1ccc2c(c1)CCO2 (some centres unmarked) [Compound 5]
IC50 (HCV replicon): 0.145 ± 0.017 µM
CC50 (Huh7 cells): 954 ± 247 µM

O=C(Nc1ccn([C@@H]2O[C@H](CO)C(O)C2(F)F)c(=O)n1)c1c(Br)ccc2c1OCO2 (some centres unmarked) [Compound 6]
IC50 (HCV replicon): 0.34 ± 0.045 µM
CC50 (Huh7 cells): 2210 ± 821 µM

O=C(Nc1ccn([C@@H]2O[C@H](CO)C(O)C2(F)F)c(=O)n1)c1ccc2c(c1)OC(F)(F)O2 (some centres unmarked) [Compound 7]
IC50 (HCV replicon): 0.046 ± 0.027 µM
CC50 (Huh7 cells): 188 ± 50 µM

Cc1cc2c(cc1C(=O)Nc1ccn([C@@H]3O[C@H](CO)C(O)C3(F)F)c(=O)n1)OCCO2 (some centres unmarked) [Compound 8]
IC50 (HCV replicon): 1.69 ± 1.06 µM
CC50 (Huh7 cells): 626 ± 191 µM

Nc1ccn([C@@H]2O[C@H](CO)[C@@H](O)C2(F)F)c(=O)n1 [Gem, 4-amino-1-((2R,4R,5R)-3,3-difluoro-4-hydroxy-5-(hydroxymethyl)tetrahydrofuran-2-yl)pyrimidin-2(1H)-one, reference compound]
IC50 (HCV replicon): 0.058 ± 0.006 µM
CC50 (PK9 cells [3]; 10 μM NBTI): 1.92 ± 0.78 µM
CC50 (PK9 cells [3]; 10 μM dipyridamole): 193 ± 20 µM
CC50 (PK9 cells [3]; ENT1 inhibitor: None): 0.095 ± 0.035 µM
CC50 (PK9 cells [4]): 0.095 ± 0.035 µM
CC50 (RPK9 cells): > 500 µM
CC50 (Huh7): 3.41 µM
CC50 (HEPG2): 0.311 µM
CC50 (MCF-7): 0.067 µM
CC50 (BxPC3): 0.0029 µM
first-pass metabolism to inactive metabolite dFdU [5]: extensive first-pass metabolism
